Assays:
retrobulbar blood flow = experiment: Effect of benzalkonium chloride compositions on retrobulbar blood flow (Example 2); assay type: in vivo; conditions: benzalkonium chloride (0.01%, 0.05, 0.1%, 0.2% in isotonic PBS pH 7.4), sufficient amount, as a mist; animals
Method: The effect of compositions including benzalkonium chloride administered in accordance with the teachings herein is performed substantially as described in Example 1. Specifically, four isotonic PBS compositions having pH of 7.4 are prepared having 0.01%, 0.05, 0.1% and 0.2% benzalkonium chloride, respectively, as an ocular irritant.
The compositions are administered to animals and the effect on retrobulbar blood flow is determined, substantially as described above.

eye = experiment: Discomfort and irritation of animals after benzalkonium chloride compositions (Example 2); assay type: in vivo

benzalkonium chloride
Effect on retinal blood flow (retrobulbar blood flow): substantial increase in retinal blood flow
Discomfort and irritation (eye; benzalkonium chloride composition as a mist): little or no substantial discomfort and irritation
Discomfort and irritation (eye; benzalkonium chloride composition as drops): cause discomfort and irritation

Reference: US20110014294A1, “STIMULATION OF OCULAR RETROBULBAR BLOOD FLOW USING OCULAR IRRITANTS” (PHARMALIGHT INC., priority 2008, published 2011)
